Data reported in patent publication US12227520B2 (priority 2019, dated 2025).
Like-named read-outs stand apart in the source and are kept apart here.

Legend:
[1] = Cytotoxicity assay in MT-4 cells; type: cell-based, human; conditions: human, uninfected MT-4 cells, 5 days incubation; read-out: CC50
Procedure, shortened: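 For cytotoxicity, uninfected MT-4 cells were incubated with compounds 5 days at 37 °C, with 10 μM puromycin marking base cytotoxicity. Parallel plates used HIV-1 IIIB-infected (1:250 stock dilution) or mock cells with 5 μM AZT and no-drug controls. Read-out: CellTiter-Glo chemiluminescence.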

HIV-1 (IIIB) = experiment: Antiviral assay in MT-4 cells (HIV MT-4 antiviral assay); type: cell-based; conditions: Human immunodeficiency virus 1, IIIB, MT4, 120 h, HIV-1 (IIIB) in MT-4 cells, 5 days incubation; read-out: EC50
Procedure, shortened: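 Read-out is CellTiter-Glo chemiluminescence after 5-day culture at 37° C, giving protection of MT-4 cells from HIV-1 IIIB cytopathicity. Compounds tested in 1:3 dilution series in complete RPMI; controls were no drug, mock infection and 5 μM AZT.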

pLai RLuc reporter virus = experiment: microbe, parasite or virus in culture; type: cell-based, HIV; conditions: Human immunodeficiency virus 1, 72 h
Procedure, shortened: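 Read-out is Renilla luciferase after 72 h at 37 °C in MT-4 cells infected 2 h beforehand with pLai RLuc reporter virus; compounds diluted 1:3.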

[2] = read-out: Antiviral Serum Shift RLuc 50% HS, HS/CCM (RPMI media, 10% FBS, 50% HS, 1% P/S), 72-h incubation
[3] = read-out: Antiviral Serum Shift RLuc CCM, CCM (RPMI media, 10% FBS, 1% P/S), 72-h incubation

Row | SMILES | CC50 at 5 days [1] [nM] | EC50 (HIV-1 (IIIB)) [nM] | EC50 (pLai RLuc reporter virus; [2]) [nM] | EC50 (pLai RLuc reporter virus; [3]) [nM]
1 | O=C(NCc1c(F)cc(F)cc1F)c1cn2c(c(O)c1=O)C(=O)N1C[C@H]2CCc2c(F)cccc21 [Example 43-2, (12R)-1-fluoro-7-hydroxy-6,8-dioxo-N-(2,4,6-trifluorobenzyl)-6,8,13,14-tetrahydro-12H-5,12-methanobenzo[e]pyrido[1,2-a][1,4]diazonine-9-carboxamide] | 9150 | 1.57 | 0.647 | 0.289
2 | O=C(NCc1c(F)cc(F)cc1F)c1cn2c(c(O)c1=O)C(=O)N1CCC(F)=C[C@H]2C1 [Example 121, (7S)-5-fluoro-12-hydroxy-1,11-dioxo-N-(2,4,6-trifluorobenzyl)-1,4,7,11-tetrahydro-3H-2,7-methanopyrido[1,2-a][1,4]diazonine-10-carboxamide] | 24800 | 1.76 | 0.505 | 0.235
3 | O=C(NCc1c(F)cc(F)cc1F)c1cn2c(c(O)c1=O)C(=O)N1CCC[C@@H](F)[C@@H]2C1 [Example 15-1, (6R,7S)-6-fluoro-12-hydroxy-1,11-dioxo-N-(2,4,6-trifluorobenzyl)-1,4,5,6,7,11-hexahydro-3H-2,7-methanopyrido[1,2-a][1,4]diazonine-10-carboxamide] | 18300 | 1.7 | 11.6 | 0.32
4 | O=C(NCc1ccc(F)cc1F)c1cn2c(c(O)c1=O)C(=O)N1CCC[C@@H]3C[C@]32C1 [Example 65-1, (1aR,11aR)—N-(2,4-difluorobenzyl)-7-hydroxy-6,8-dioxo-1a,2,3,4,6,8-hexahydro-1H-5,11a-methanocyclopropa[h]pyrido[1,2-a][1,4]diazonine-9-carboxamide] | 8800 | 1.73 | 28.5 | 0.297
5 | C[C@@H]1CC[C@H]2CN(C(=O)c3c(O)c(=O)c(C(=O)NCc4c(F)cc(F)cc4F)cn32)[C@H]1C [Example 108-1, (3S,4R,7S)-12-hydroxy-3,4-dimethyl-1,11-dioxo-N-(2,4,6-trifluorobenzyl)-1,4,5,6,7,11-hexahydro-3H-2,7-methanopyrido[1,2-a][1,4]diazonine-10-carboxamide] | 16100 | 0.997 | 1.31 | 0.2
6 | O=C(NCc1ccc(F)cc1F)c1cn2c(c(O)c1=O)C(=O)N1C[C@@H]2CCC[C@@H]1C(F)F [Example 189, (3R,7S)—N-(2,4-difluorobenzyl)-3-(difluoromethyl)-12-hydroxy-1,11-dioxo-1,4,5,6,7,11-hexahydro-3H-2,7-methanopyrido[1,2-a][1,4]diazonine-10-carboxamide] | 12300 | 1.56 | 6.06 | 0.411
7 | O=C(NCc1c(F)cc(F)cc1F)c1cn2c(c(O)c1=O)C(=O)N1C[C@@H]3CC[C@@H](C3)[C@@H]2C1 [Example 41-2, (4R,7S,8R)-13-hydroxy-1,12-dioxo-N-(2,4,6-trifluorobenzyl)-1,3,4,5,6,7,8,12-octahydro-2,8:4,7-dimethanopyrido[1,2-a][1,4]diazecine-11-carboxamide] | 14300 | 1.4 | 0.968 | 0.26
8 | O=C(NCc1ccc(F)cc1F)c1cn2c(c(O)c1=O)C(=O)N1CCc3cc(Cl)ccc3[C@@H]2C1 [Example 140-2, (13R)-10-chloro-N-(2,4-difluorobenzyl)-4-hydroxy-3,5-dioxo-3,5,8,13-tetrahydro-7H-6,13-methanobenzo[g]pyrido[1,2-a][1,4]diazonine-2-carboxamide] | 5230 | 1.92 | 22.4 | 0.347
9 | O=C(NCc1c(F)cc(F)cc1F)c1cn2c(c(O)c1=O)C(=O)N1CCCC(F)(F)[C@H]2C1 (single isomer, unassigned) [Example 10-2] | 16100 | 1 | 5.04 | 0.27
10 | C[C@H]1CCC[C@H]2CN1C(=O)c1c(O)c(=O)c(C(=O)NCc3ccc(F)cc3F)cn12 [Example 52-4, (3S, 7S)—N-(2,4-difluorobenzyl)-12-hydroxy-3-methyl-1,11-dioxo-1,4,5,6,7,11-hexahydro-3H-2,7-methanopyrido[1,2-a][1,4]diazonine-10-carboxamide] | 10300 | 1.33 | 7.54 | 0.218
11 | O=C(NCc1ccc(F)c(Cl)c1F)c1cn2c(c(O)c1=O)C(=O)N1CCCC[C@@H]2C1 [Example 35, (7R)—N-(3-chloro-2,4-difluorobenzyl)-12-hydroxy-1,11-dioxo-1,4,5,6,7,11-hexahydro-3H-2,7-methanopyrido[1,2-a][1,4]diazonine-10-carboxamide] | 4960 | 1.5 | 44.4 | 0.423
12 | O=C(NCc1c(F)cc(F)cc1F)c1cn2c(c(O)c1=O)C(=O)N1CCC[C@H](O)C[C@H]2C1 [Example 82-1, (6S,8S)-6,13-dihydroxy-1,12-dioxo-N-(2,4,6-trifluorobenzyl)-1,3,4,5,6,7,8,12-octahydro-2,8-methanopyrido[1,2-a][1,4]diazecine-11-carboxamide] | > 50000 | 20.5 | 5.16 | 4.5
13 | C[C@H]1C=CC[C@H]2CN1C(=O)c1c(O)c(=O)c(C(=O)NCc3c(F)cc(F)cc3F)cn12 [Example 148, (3S,7S)-12-hydroxy-3-methyl-1,11-dioxo-N-(2,4,6-trifluorobenzyl)-1,6,7,11-tetrahydro-3H-2,7-methanopyrido[1,2-a][1,4]diazonine-10-carboxamide] | 13800 | 1.67 | 6.34 | 0.182
14 | O=C(NCc1ccc(F)c(Cl)c1F)c1cn2c(c(O)c1=O)C(=O)N1CC=CC[C@H]2C1 [Example 58, (7S)—N-(3-chloro-2,4-difluorobenzyl)-12-hydroxy-1,11-dioxo-1,6,7,11-tetrahydro-3H-2,7-methanopyrido[1,2-a][1,4]diazonine-10-carboxamide] | 4150 | 0.986 | 1.67 | 0.25
15 | C[C@@H]1CC[C@H]2C[C@@]23CN1C(=O)c1c(O)c(=O)c(C(=O)NCc2c(F)cc(F)cc2F)cn13 [Example 150, (1aS,4R,11aS)-7-hydroxy-4-methyl-6,8-dioxo-N-(2,4,6-trifluorobenzyl)-1a,2,3,4,6,8-hexahydro-1H-5,11a-methanocyclopropa[h]pyrido[1,2-a][1,4]diazonine-9-carboxamide] | 8490 | 1.98 | 4.41 | 0.171
16 | O=C(NCc1c(F)cc(F)cc1F)c1cn2c(c(O)c1=O)C(=O)N1CC(F)CC[C@H]2C1 (stereo partly drawn) [Example 178, (7S)-4-fluoro-12-hydroxy-1,11-dioxo-N-(2,4,6-trifluorobenzyl)-1,4,5,6,7,11-hexahydro-3H-2,7-methanopyrido[1,2-a][1,4]diazonine-10-carboxamide] | 16700 | 2.14 | 6.56 | 0.43
17 | O=C(NCc1ccc(F)c(Cl)c1F)c1cn2c(c(O)c1=O)C(=O)N1Cc3cc(F)c(F)cc3C[C@@H]2C1 [Example 139-1, (6R)—N-(3-chloro-2,4-difluorobenzyl)-9,10-difluoro-1-hydroxy-2,14-dioxo-2,7,12,14-tetrahydro-6H-6,13-methanobenzo[f]pyrido[1,2-a][1,4]diazonine-3-carboxamide] | > 50000 | 14.8 | 84.3 | 3.93
18 | C[C@H]1C[C@H]2CN(C(=O)c3c(O)c(=O)c(C(=O)NCc4c(F)cc(F)cc4F)cn32)[C@@H](C)C1 [Example 142-2, (3S,5R,7S)-12-hydroxy-3,5-dimethyl-1,11-dioxo-N-(2,4,6-trifluorobenzyl)-1,4,5,6,7,11-hexahydro-3H-2,7-methanopyrido[1,2-a][1,4]diazonine-10-carboxamide] | 13600 | 1.87 | 2.81 | 0.363
19 | O=C(NCc1c(F)cc(F)cc1F)c1cn2c(c(O)c1=O)C(=O)N1Cc3ccccc3C[C@H]2C1 [Example 70, (6S)-1-hydroxy-2,14-dioxo-N-(2,4,6-trifluorobenzyl)-2,7,12,14-tetrahydro-6H-6,13-methanobenzo[f]pyrido[1,2-a][1,4]diazonine-3-carboxamide] | 13300 | 1.41 | 1.32 | 0.322
20 | O=C(NCc1c(F)cc(F)cc1F)c1cn2c(c(O)c1=O)C(=O)N1CCC[C@H](Cl)[C@H]2C1 (single isomer, unassigned) [Example 72-1] | 9990 | 1.57 | 5.36 | 0.281
21 | O=C(NCc1ccc(F)c(Cl)c1F)c1cn2c(c(O)c1=O)C(=O)N1CCC=C[C@H]2C1 [Example 171, (7S)—N-(3-chloro-2,4-difluorobenzyl)-12-hydroxy-1,11-dioxo-1,4,7,11-tetrahydro-3H-2,7-methanopyrido[1,2-a][1,4]diazonine-10-carboxamide] | 4190 | 0.962 | 8.5 | 0.387
